{"source": "patent US4228176A", "about": "“Thromboxane inhibition with burimamide” (Nelson Research & Development Company, priority 1979, dated 1980)", "key": {"[1]": {"test_system": "Thromboxane Biosynthesis", "experiment": "Inhibition of thromboxane biosynthesis", "assay_type": "biochemical", "parameters": "% Inhibition of Thromboxane Biosynthesis: unit of the concentration uncertain", "settings": "for % INHIBITION (Inhibition of Thromboxane Biosynthesis): concentration of 100 mg/ml (Table 2)", "description": "A comparison of the inhibition of thromboxane biosynthesis between imidazole and Burimamide was made.\nA number of structurally related compounds including other H2 blockers were compared for inhibition of thromboxane activity."}, "[2]": {"test_system": "Thromboxane Synthetase", "settings": "cited from earlier work"}, "[3]": {"test_system": "Thromboxane Synthetase", "settings": "human platelets; cited from earlier work"}, "[4]": {"test_system": "H2-receptor", "settings": "cited from earlier work"}, "[5]": {"test_system": "histamineinduced gastric acid secretion", "settings": "cited from earlier work"}, "[6]": {"settings": "concentration 0.5 (unit uncertain)"}, "[7]": {"settings": "concentration 1 (unit uncertain)"}, "[8]": {"settings": "concentration 2 (unit uncertain)"}, "[9]": {"settings": "concentration 5 (unit uncertain)"}, "[10]": {"settings": "concentration 10 (unit uncertain)"}, "[11]": {"settings": "concentration 20 (unit uncertain)"}, "[12]": {"settings": "concentration 50 (unit uncertain)"}}, "note": "Read-outs that look alike come from different tables or passages of the source.", "data": [{"smiles": "CC(=O)NCCc1c[nH]cn1", "note": "[N-acetyl Histamine]", "values": [{"measurement": "% INHIBITION (Inhibition of Thromboxane Biosynthesis)", "setting": "[1]", "result": 26, "unit": "%"}]}, {"smiles": "CC(=O)N[C@@H](Cc1c[nH]cn1)C(=O)O", "note": "[N-acetyl Histidine]", "values": [{"measurement": "% INHIBITION (Inhibition of Thromboxane Biosynthesis)", "setting": "[1]", "result": 0, "unit": "%"}]}, {"smiles": "Cc1[nH]cnc1CCN", "note": "[4-Methylhistamine]", "values": [{"measurement": "% INHIBITION (Inhibition of Thromboxane Biosynthesis)", "setting": "[1]", "result": 0, "unit": "%"}]}, {"smiles": "Cn1ccnc1", "note": "[1-methyl imidazole]", "values": [{"measurement": "inhibition of thromboxane biosynthesis, in words", "setting": "[2]", "result": "potent inhibitor of thromboxane biosynthesis"}]}, {"smiles": "N[C@@H](Cc1c[nH]cn1)C(=O)O", "note": "[L-Histidine]", "values": [{"measurement": "% INHIBITION (Inhibition of Thromboxane Biosynthesis)", "setting": "[1]", "result": 17, "unit": "%"}]}, {"smiles": "CNC(=S)NCCSCc1[nH]cnc1C", "note": "[Metiamide]", "values": [{"measurement": "thromboxane biosynthesis inhibition, in words", "setting": "[1]", "result": "only minor thromboxane inhibitory activity"}, {"measurement": "% INHIBITION (Inhibition of Thromboxane Biosynthesis)", "setting": "[1]", "result": 33, "unit": "%"}]}, {"smiles": "NCCc1ccccn1", "note": "[2-(2-pyridyl) Ethylamine]", "values": [{"measurement": "% INHIBITION (Inhibition of Thromboxane Biosynthesis)", "setting": "[1]", "result": 20, "unit": "%"}]}, {"smiles": "NCCc1nccs1", "note": "[2-(2-thiazolyl) Ethylamine]", "values": [{"measurement": "% INHIBITION (Inhibition of Thromboxane Biosynthesis)", "setting": "[1]", "result": 19, "unit": "%"}]}, {"smiles": "c1c[nH]cn1", "note": "[Imidazole]", "values": [{"measurement": "thromboxane biosynthesis inhibition, in words", "setting": "[1]", "result": "only compound comparable in inhibition of thromboxane biosynthesis"}, {"measurement": "% Inhibition of Thromboxane Biosynthesis", "setting": "[1]; [6]", "result": 0, "unit": "%"}, {"measurement": "% Inhibition of Thromboxane Biosynthesis", "setting": "[1]; [7]", "result": 25, "unit": "%"}, {"measurement": "% Inhibition of Thromboxane Biosynthesis", "setting": "[1]; [8]", "result": 53, "unit": "%"}, {"measurement": "% Inhibition of Thromboxane Biosynthesis", "setting": "[1]; [9]", "result": 68, "unit": "%"}, {"measurement": "% Inhibition of Thromboxane Biosynthesis", "setting": "[1]; [10]", "result": 81, "unit": "%"}, {"measurement": "% Inhibition of Thromboxane Biosynthesis", "setting": "[1]; [11]", "result": 89, "unit": "%"}, {"measurement": "% Inhibition of Thromboxane Biosynthesis", "setting": "[1]; [12]", "result": 88, "unit": "%"}, {"measurement": "inhibition of thromboxane biosynthesis, in words", "setting": "[3]", "result": "selective inhibitor of thromboxane biosynthesis"}]}, {"smiles": "CNC(=NC#N)NCCSCc1[nH]cnc1C", "note": "[Cimetidine]", "values": [{"measurement": "thromboxane biosynthesis inhibition, in words", "setting": "[1]", "result": "only minor thromboxane inhibitory activity"}, {"measurement": "% INHIBITION (Inhibition of Thromboxane Biosynthesis)", "setting": "[1]", "result": 19, "unit": "%"}]}, {"smiles": "NCCc1c[nH]cn1", "note": "[Histamine]", "values": [{"measurement": "% INHIBITION (Inhibition of Thromboxane Biosynthesis)", "setting": "[1]", "result": 17, "unit": "%"}]}, {"smiles": "CNC(=S)NCCCCc1c[nH]cn1", "note": "[Burimamide, N-methyl-N'-[4-(imidazole-4-yl)butyl] thiourea]", "values": [{"measurement": "thromboxane biosynthesis inhibition, in words", "setting": "[1]", "result": "potent, selective blocker of thromboxane biosynthesis"}, {"measurement": "% Inhibition of Thromboxane Biosynthesis", "setting": "[1]; concentration 100 mg/ml (Table 1)", "result": 98, "unit": "%"}, {"measurement": "% Inhibition of Thromboxane Biosynthesis", "setting": "[1]; [6]", "result": 15, "unit": "%"}, {"measurement": "% Inhibition of Thromboxane Biosynthesis", "setting": "[1]; [7]", "result": 21, "unit": "%"}, {"measurement": "% Inhibition of Thromboxane Biosynthesis", "setting": "[1]; [8]", "result": 36, "unit": "%"}, {"measurement": "% Inhibition of Thromboxane Biosynthesis", "setting": "[1]; [9]", "result": 47, "unit": "%"}, {"measurement": "% Inhibition of Thromboxane Biosynthesis", "setting": "[1]; [10]", "result": 58, "unit": "%"}, {"measurement": "% Inhibition of Thromboxane Biosynthesis", "setting": "[1]; [11]", "result": 73, "unit": "%"}, {"measurement": "% Inhibition of Thromboxane Biosynthesis", "setting": "[1]; [12]", "result": 86, "unit": "%"}, {"measurement": "% INHIBITION (Inhibition of Thromboxane Biosynthesis)", "setting": "[1]", "result": 100, "unit": "%"}, {"measurement": "pharmacologic activity at H2-receptor, in words", "setting": "[4]", "result": "H2 -receptor blocker"}, {"measurement": "histamine-induced gastric acid secretion, in words", "setting": "[5]", "result": "inhibit histamineinduced gastric acid secretion"}]}, {"smiles": "c1ccc([C@H]2CN3CCSC3=N2)cc1", "note": "[Levamisole]", "values": [{"measurement": "% INHIBITION (Inhibition of Thromboxane Biosynthesis)", "setting": "[1]", "result": 6, "unit": "%"}]}, {"smiles": "Clc1cccc(Cl)c1NC1=NCCN1", "note": "[Clonidine]", "values": [{"measurement": "% INHIBITION (Inhibition of Thromboxane Biosynthesis)", "setting": "[1]", "result": 0, "unit": "%"}]}, {"smiles": "CN(C)CCCSC(=N)N", "note": "[Dimaprit]", "values": [{"measurement": "% INHIBITION (Inhibition of Thromboxane Biosynthesis)", "setting": "[1]", "result": 35, "unit": "%"}]}]}
